Experimental data as given in US8476051B2, “Thermostable alcohol dehydrogenase derived from Thermococcus guaymasensis” (priority 2008, dated 2013).
“Also recorded” adds a separate entry of the source. Read-outs that look alike come from different tables or passages of the source. Marks after values point to notes of the source that are not given here.

Tests used:
T. guaymasensis ADH [1] = target: T1, T. guaymasensis ADH (Thermococcus guaymasensis, UniProt F8S123); assay: Substrate specificity, alcohol oxidation (standard enzyme assay); assay type: biochemical; settings: for Relative activity (alcohol oxidation): alcohols 50 mM, 100% = 2-butanol, 0.4 mM NADP^+, pH 10.5, 80° C.
Description: (§1) The purified enzyme (0.25 μg) initiated the enzyme assay. […] The protein concentrations of all samples were determined using the Bradford method and bovine serum albumin served as the standard protein (Bradford 1976).
(§2) The effect of pH on the enzyme activities was determined over a range of 5.5-11.4. The buffers (100 mM) used were phosphate (pH 5.5-8.0), EPPS (8.0-9.0), glycylglycine (9.0-9.7), and CAPS (9.7-11.4). The effect of the temperature on the enzyme activity was examined at temperatures from 30 to 95° C. Enzyme thermostability was determined by incubating the enzyme in sealed serum bottles at 80° C. and 95° C., respectively. Residual activity was assayed at various time intervals under the standard assay conditions. Substrate specificity was determined using primary and secondary alcohols (50 mM), diols and polyols (50 mM), or aldehydes and ketones (6 mM) under standard assay conditions.

T. guaymasensis ADH [2] = target: T1, T. guaymasensis ADH; assay: Substrate specificity, aldehyde/ketone reduction (standard enzyme assay); assay type: biochemical; settings: aldehydes or ketones 6 mM; 100% = 2-butanone; 0.2 mM NADPH, pH 7.5, 80° C.
Description: as §1, §2

T. guaymasensis ADH [3] = target: T1, T. guaymasensis ADH; assay: Stereoselective conversion between acetoin and 2,3-butanediol (chiral GC); assay type: biochemical
Description: All the reactions were carried out at 30° C. for 24 hours unless specified. After that, the reaction mixture (1 ml) was extracted with 1 ml ethyl acetate or dichloride methane with shaking on a Gyrotory water bath shaker model G76 (New Brunswick Scientific Co., INC., NJ, USA) at 350 rpm for 30 min (room temperature). The stereoselectivity of the purified enzyme was determined using the Shimadzu GC-14A gas chromatography equipped with a CP-Chirasil-Dex CB column (0.25 mm ID×25 m length, Varian Inc., Palo Alto, Calif., USA). The following GC operating conditions included the FID detector (250° C.) at a sensitivity range of 10 and helium as the carrier gas at a linear velocity of 40 cm s^−1. […] The reaction mixture after extraction (0.5 μl) was directly applied onto the injector (200° C.) for each assay. The peak areas were quantitated using specific external standards.

T. guaymasensis ADH [4] = assay: Effect of metal ions on enzyme activity (2-butanone reduction); assay type: biochemical, Thermococcus guaymasensis; settings: up to 100 μM in the assay mixture
Description: as §2
Metal ions were added in the enzyme assay mixture at a final concentration of 100 μM.

C[C@@H](O)[C@@H](C)O = assay: purified protein, by the assay type; settings: other: co-substrate NADP^+ (0.4 mM); 80.0 °C
C[C@H](O)[C@@H](C)O = assay: purified protein, by the assay type; settings: other: co-substrate NADP^+ (0.4 mM); 80.0 °C
[5] = Oxygen sensitivity (residual activity after exposure to air); assay type: physicochemical; settings: exposed to air for a week
Description: The effect of oxygen on enzyme activity was investigated by exposing the enzyme samples in the air at room temperature and determining the residual activity after oxygen exposure. The exposure was performed in the presence or absence of DDT and SDT. The residual activities of each sample at different time intervals were tested parallelly under the standard assay conditions.

[6] = ADH specific activity (spectrophotometric enzyme assay); assay type: biochemical
Description: as §1
The reaction was initiated by adding enzymes.

[7] = substrate: CC(=O)C(C)O; assay: purified protein, by the assay type; assay type: biochemical, Thermococcus guaymasensis; settings: other: co-substrate NADPH (0.2 mM); 80.0 °C
Description: Apparent values of Km and Vmax were calculated using the curve fittings of SigmaPlot (Systat Software Inc., San Jose, Calif., USA).

[8] = substrate: CC(=O)C(C)=O; assay: purified protein, by the assay type; settings: other: co-substrate NADPH (0.2 mM); 80.0 °C
[9] = substrate: CCC(C)=O; assay: purified protein, by the assay type; settings: other: co-substrate NADPH (0.2 mM); 80.0 °C
[10] = oxidation, 50 mM substrate, 500 mM acetone, 1 mM NADP^+, 30° C., 24 hours

Molecule: 1-Propanol
- Relative activity (alcohol oxidation) (T. guaymasensis ADH [1]): 15.1 ± 0.3%

Molecule: CC(=O)C(C)O (racemic) [Acetoin]
- Oxidation of the substrate by the enzyme (in words) (T. guaymasensis ADH [1]): could not oxidize; also recorded: cannot be oxidized
- Relative activity (aldehyde/ketone reduction) (T. guaymasensis ADH [2]): 93 ± 3.2%
- ee of (2R,3R)-2,3-butanediol and meso-2,3-butanediol over (2S,3S)-(+)-2,3-butanediol (T. guaymasensis ADH [3]; reduction, 50 mM substrate, 500 mM isopropanol, 1 mM NADPH, 30° C., 24 hours): > 99%

Molecule: CCC(O)CO (stereo not shown) [1,2-Butanediol]
- Relative activity (alcohol oxidation) (T. guaymasensis ADH [1]): 25.6 ± 2.3%

Molecule: CCCC(O)CO (stereo not shown) [1,2-Pentanediol]
- Relative activity (alcohol oxidation) (T. guaymasensis ADH [1]): 4.7 ± 0.3%

Molecule: CC(O)CCO (stereo not shown) [1,3-Butanediol]
- Relative activity (alcohol oxidation) (T. guaymasensis ADH [1]): 35.4 ± 1.1%

Molecule: CCCCO [1-Butanol]
- Relative activity (alcohol oxidation) (T. guaymasensis ADH [1]): 5.1 ± 0.2%

Molecule: CCCCCO [1-Pentanol]
- Relative activity (alcohol oxidation) (T. guaymasensis ADH [1]): 0.8 ± 0.2%

Molecule: CC(O)C(C)O (stereo not shown) [2,3-Butanediol]
- Relative activity (alcohol oxidation) (T. guaymasensis ADH [1]): 78.7 ± 3.4%

Molecule: CC(O)CC(C)O (stereo not shown) [2,4-Pentanediol]
- Relative activity (alcohol oxidation) (T. guaymasensis ADH [1]): 9.2 ± 0.1%

Molecule: CCC(C)O (stereo not shown) [2-Butanol]
- Activity meant by relative activity of 100% in alcohol oxidation (T. guaymasensis ADH [1]; 50 mM substrate): ^aThe relative activity of 100% in alcohol oxidation means 1144 ± 24 U mg^−1.
- Relative activity (alcohol oxidation) (T. guaymasensis ADH [1]): 100 ± 2.2^a %

Molecule: CCC(C)=O [2-Butanone]
- Relative activity (aldehyde/ketone reduction) (T. guaymasensis ADH [2]): 100 ± 3.4^b %
- Stereoselectivity of the reduction (in words) (T. guaymasensis ADH [3]; reduction to chiral 2-butanols): no stereoselectivity

Molecule: CCCC(C)O (stereo not shown) [2-Pentanol]
- Relative activity (alcohol oxidation) (T. guaymasensis ADH [1]): 66.3%

Molecule: CCCC(C)=O [2-Pentanone]
- Relative activity (aldehyde/ketone reduction) (T. guaymasensis ADH [2]): 86.2 ± 3.1%

Molecule: CC(C)O [2-Propanol]
- Relative activity (alcohol oxidation) (T. guaymasensis ADH [1]): 88 ± 1.1%

Molecule: C[C@@H](O)[C@@H](C)O [(2R,3R)-(−)-2,3-butanediol]
- Enantiomeric excess (ee) of product (3R)-acetoin (T. guaymasensis ADH [3]; [10]): 94%

Molecule: CC=O [Acetaldehyde]
- Relative activity (aldehyde/ketone reduction) (T. guaymasensis ADH [2]): 36 ± 4.2%

Molecule: CC(C)=O [Acetone]
- Relative activity (aldehyde/ketone reduction) (T. guaymasensis ADH [2]): 149.4 ± 2.8%

Molecule: CCCC=O [Butyraldehyde]
- Relative activity (aldehyde/ketone reduction) (T. guaymasensis ADH [2]): 112.4 ± 11.9%

Molecule: CC(=O)C(C)=O [Diacetyl]
- Relative activity (aldehyde/ketone reduction) (T. guaymasensis ADH [2]): 134.8 ± 5.9%

Molecule: CCO [Ethanol]
- Relative activity (alcohol oxidation) (T. guaymasensis ADH [1]): 5.7 ± 0.3%

Molecule: OCC(O)CO [Glycerol]
- Relative activity (alcohol oxidation) (T. guaymasensis ADH [1]): 0.2 ± 0.1%

Molecule: N[C@@H](CO)C(=O)O [L-serine]
- Oxidation of the substrate by the enzyme (in words) (T. guaymasensis ADH [1]): no activity; also recorded: did not catalyze

Molecule: C[C@@H](O)[C@H](N)C(=O)O [L-threonine]
- Oxidation of the substrate by the enzyme (in words) (T. guaymasensis ADH [1]): no activity; also recorded: did not catalyze
- Oxidation of the substrate by the enzyme (in words) (T. guaymasensis ADH [1]; listed as threonine): did not catalyze

Molecule: CO [Methanol]
- Oxidation of the substrate by the enzyme (in words) (T. guaymasensis ADH [1]): did not oxidize
- Relative activity (alcohol oxidation) (T. guaymasensis ADH [1]): 0%

Molecule: [Zn+2] [Zn^2+]
- Effect on enzyme activity (butanol formation) (T. guaymasensis ADH [4]): inhibited
- Effect on enzyme activity (butanol formation) (T. guaymasensis ADH [4]; listed as zinc): blocked

Molecule: C[C@H](O)[C@@H](C)O [meso-2,3-butanediol]
- Enantiomeric excess (ee) of product (3S)-acetoin (T. guaymasensis ADH [3]; [10]): 88%

Molecule: T. guaymasensis ADH (Thermococcus guaymasensis)
- Km (C[C@@H](O)[C@@H](C)O): 15200 µM
- Vmax (C[C@@H](O)[C@@H](C)O): 1110 µmol/min/mg
- kcat (C[C@@H](O)[C@@H](C)O): 740 s⁻¹
- kcat/Km (C[C@@H](O)[C@@H](C)O): 49000 M⁻¹ s⁻¹
- Km (C[C@H](O)[C@@H](C)O): 19300 µM
- Vmax (C[C@H](O)[C@@H](C)O): 1430 µmol/min/mg
- kcat (C[C@H](O)[C@@H](C)O): 952 s⁻¹
- kcat/Km (C[C@H](O)[C@@H](C)O): 49000 M⁻¹ s⁻¹

B1: TgADH(C56S): TgADH mutant, serine for cysteine at position 56 (SEQ ID NO:10), expressed in E. coli Rosetta-2 (protein)
chain: MHHHHHHSSGLVPRGSGMKETAAAKFERQHMDSPDLGTDDDDKAMADIGSEFMSKMRGFAMVDFGKAEWIEKERPKPGPYDAIVKPIAVAPCTSDIHTVFEAAFPREMSEFPRILGHEAVGEVVEVGSHVKDFKPGDRVVVPAITPDWRTLDVQRGYHQHSGGMLAGWKFSNPLKEGGKDGVFAEYFHVNDADMNLAHLPDEIKPEVAVMATDMMTTGFHGAELADIPLGGTVAVIGIGPVGLMAVAGARLLGAGRIIAVGSRPVCVEAAKYYGATDIVNRREHPDIAGRILELTGGEGVDSVIIAGGNVDVMKTAVKIVKPGGTVANINYFGSGDYLPIPRIEWGQGMAHKTIKGGLCPGGRLRMERLLDLIKYGRVDPSRLITHKFKGFDKIPEALYLMKDKPKDLIKPVVIIEE
modifications: C56S with vector coding region
- Activity after exposure to air (in words) [5]: lost activity
- Enzyme activity compared with wild type TgADH (in words) [6]: virtually no difference

B2: T. guaymasensis ADH (Thermococcus guaymasensis) (protein)
chain: SKMRGFAMVDFGKAEWIEKERPKPGPYDAIVKPIAVAPCTSDIHTVFEAAFPREMCEFPRILGHEAVGEVVEVGSHVKDFKPGDRVVVPAITPDWRTLDVQRGYHQHSGGMLAGWKFSNPLKEGGKDGVFAEYFHVNDADMNLAHLPDEIKPEVAVMATDMMTTGFHGAELADIPLGGTVAVIGIGPVGLMAVAGARLLGAGRIIAVGSRPVCVEAAKYYGATDIVNRREHPDIAGRILELTGGEGVDSVIIAGGNVDVMKTAVKIVKPGGTVANINYFGSGDYLPIPRIEWGQGMAHKTIKGGLCPGGRLRMERLLDLIKYGRVDPSRLITHKFKGFDKIPEALYLMKDKPKDLIKPVVIIEE
- Km [7]: 320 µM
- Vmax [7]: 213 µmol/min/mg
- kcat [7]: 142 s⁻¹
- kcat/Km [7]: 444000 M⁻¹ s⁻¹
- Km [8]: 210 µM
- Vmax [8]: 303 µmol/min/mg
- kcat [8]: 202 s⁻¹
- kcat/Km [8]: 962000 M⁻¹ s⁻¹
- Km [9]: 310 µM
- Vmax [9]: 285 U mg^−1
- kcat [9]: 190 s⁻¹
- kcat/Km [9]: 613,000 s^−1M^−1
